{
  "source": "patent US9862716B2",
  "about": "“TRKA kinase inhibitors, compositions and methods thereof” (Merck Sharp & Dohme Corp., priority 2014, dated 2018)",
  "data": [
    {"biological_target": "T1, human TrkA receptor (Homo sapiens, UniProt P04629)", "T1 construct": "host or cells: U2OS cells (PathHunter cell line)", "T1 sequence (P04629 33-796)": "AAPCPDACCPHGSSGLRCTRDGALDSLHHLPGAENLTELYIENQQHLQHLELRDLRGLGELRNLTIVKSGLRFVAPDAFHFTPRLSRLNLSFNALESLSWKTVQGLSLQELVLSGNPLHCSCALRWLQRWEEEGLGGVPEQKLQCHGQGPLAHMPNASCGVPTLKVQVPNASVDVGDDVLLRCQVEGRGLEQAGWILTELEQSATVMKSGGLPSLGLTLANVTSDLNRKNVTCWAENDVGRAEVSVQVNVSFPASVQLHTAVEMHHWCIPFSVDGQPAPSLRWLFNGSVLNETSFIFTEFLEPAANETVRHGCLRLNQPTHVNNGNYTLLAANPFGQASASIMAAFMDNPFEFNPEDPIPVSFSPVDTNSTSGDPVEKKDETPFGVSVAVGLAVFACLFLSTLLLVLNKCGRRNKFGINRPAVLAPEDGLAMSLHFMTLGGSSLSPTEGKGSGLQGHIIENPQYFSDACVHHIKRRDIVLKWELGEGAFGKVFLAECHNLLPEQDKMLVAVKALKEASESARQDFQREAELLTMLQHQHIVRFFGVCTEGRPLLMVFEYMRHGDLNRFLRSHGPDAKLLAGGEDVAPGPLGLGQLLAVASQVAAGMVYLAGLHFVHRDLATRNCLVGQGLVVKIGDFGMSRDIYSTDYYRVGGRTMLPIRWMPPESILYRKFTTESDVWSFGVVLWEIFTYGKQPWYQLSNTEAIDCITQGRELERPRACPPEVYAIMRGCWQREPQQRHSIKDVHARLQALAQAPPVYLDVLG", "assay": "DiscoverX PathHunter TrkA functional assay (NGF-stimulated U2OS cells)", "type": "cell-based", "conditions": "U2OS cells expressing human TrkA-PK, Shc1-EA and p75NTR; compound 1 h, then NGF at ~80% of maximal response for 3 h; luminescence", "units": {"IC50": "nM"}, "procedure": "TrkA functional activity was measured using a DiscoverX PathHunter assay. In this assay, U2OS cells express the human TrkA receptor as a fusion with the weakly complementing fragment of B-galactosidase, which DiscoverX calls “Prolink (PK)”; additionally, Shc1 is fused with a larger fragment, which is called “Enzyme Acceptor (EA)”. Activation of the TrkA receptor, upon NGF addition, results in the kinase domain being phosphorylated, resulting in subsequent recruitment of Shc1-EA protein. That recruitment results in an active B-galactosidase enzyme that is detected by addition of a chemiluminescent substrate. The human p75^NTR protein was also expressed as a co-receptor for NGF.\nAll reagents were purchased from DiscoverX, except for the receptor agonists (NGF, BDNF, NT3) which were purchased from Peprotech. Cells were expanded and frozen into cryovials, and stored in the vapor phase of liquid nitrogen, and thawed immediately before use. Thawed cells were added to a 384-well plate at 7500 cells/well, and allowed to incubate overnight. Compound at various concentrations was added the following morning and allowed to incubate on cells for 1 h. Then, NGF was added at a concentration sufficient to elicit ˜80% of a maximal response and allowed to incubate for 3 h at ambient temperature. DiscoverX PathHunter detection reagent was then added and the plate was further incubated for 1 h in the dark. The plate was then read via luminescence on the Perkin Elmer Envision.", "values": [
      {"smiles": "C[C@@H](O)c1ccn2c(NC(=O)c3ccc(C(F)(F)F)c(-c4ccn(C)n4)c3)c(-c3ccccc3)nc2c1", "note": "(single isomer, unassigned) [Compound 42]", "IC50": 0.79},
      {"smiles": "CC(O)c1ccc2nc(-c3ccccc3)c(NC(=O)c3ccc(C(F)(F)F)c(-c4ccn(C)n4)c3)n2c1", "note": "(single isomer, unassigned) [Compound 48, (R or S)-N-[6-(1-hydroxyethyl)-2-phenylimidazo[1,2-a]pyridin-3-yl]-3-(1-methyl-1H-pyrazol-3-yl)-4-(trifluoromethyl) benzamide]", "IC50": 1.9},
      {"smiles": "Cn1ccc(-c2cc(C(=O)Nc3c(-c4ccccc4)nc4cc(C(O)CO)ccn34)ccc2C(F)(F)F)n1", "note": "(single isomer, unassigned) [Compound 49, (R or S)-N-[7-(1,2-dihydroxyethyl)-2-phenylimidazo[1,2-a]pyridin-3-yl]-3-(1-methyl-1H-pyrazol-3-yl)-4-(trifluoromethyl) benzamide]", "IC50": 0.51},
      {"smiles": "CC(c1ccn2c(NC(=O)c3cc(-c4ccn(C)n4)c(C(F)(F)F)cc3F)c(-c3ccccc3)nc2c1)N(C)C", "note": "(single isomer, unassigned) [Compound 51, (R or S)-N-{7-[1-(dimethylamino)ethyl]-2-phenylimidazo[1,2-a]pyridin-3-yl}-2-fluoro-5-(1-methyl-1H-pyrazol-3-yl)-4-(trifluoromethyl) benzamide]", "IC50": 3.5},
      {"smiles": "Cn1ccc(-c2cc(C(=O)Nc3c(-c4ccccc4)nc4ccc(C(O)CO)cn34)ccc2C(F)(F)F)n1", "note": "(single isomer, unassigned) [Compound 52, (R or S)-N-[6-(1,2-dihydroxyethyl)-2-phenylimidazo[1,2-a]pyridin-3-yl]-3-(1-methyl-1H-pyrazol-3-yl)-4-(trifluoromethyl) benzamide]", "IC50": 4.9},
      {"smiles": "CC(O)c1ccn2c(NC(=O)c3cc(-c4ccn(C)n4)c(C(F)(F)F)cc3F)c(-c3ccccc3)nc2c1", "note": "(single isomer, unassigned) [Compound 54, (R or S)-2-fluoro-N-[7-(1-hydroxyethyl)-2-phenylimidazo[1,2-a]pyridin-3-yl]-5-(1-methyl-1H-pyrazol-3-yl)-4-(trifluoromethyl) benzamide]", "IC50": 0.4},
      {"smiles": "CC(O)c1ccn2c(NC(=O)c3cc(-c4ccn(C)n4)c(C(F)(F)F)cc3F)c(-c3ccccc3)nc2c1", "note": "(single isomer, unassigned) [Compound 55, (R or S)-2-fluoro-N-[7-(1-hydroxyethyl)-2-phenylimidazo[1,2-a]pyridin-3-yl]-5-(1-methyl-1H-pyrazol-3-yl)-4-(trifluoromethyl) benzamide]", "IC50": 0.37},
      {"smiles": "CC(c1ccn2c(NC(=O)c3ccc(C(F)(F)F)c(-c4ccn(C)n4)c3)c(-c3ccccc3)nc2c1)N(C)C", "note": "(single isomer, unassigned) [Compound 56, (R or S)-N-{7-[1-(dimethylamino)ethyl]-2-phenylimidazo[1,2-a]pyridin-3-yl}-3-(1-methyl-1H-pyrazol-3-yl)-4-(trifluoromethyl) benzamide]", "IC50": 1},
      {"smiles": "CC(O)c1ccn2c(NC(=O)c3cc(-c4ncccn4)c(C(F)(F)F)cc3F)c(-c3ccccc3)nc2c1", "note": "(single isomer, unassigned) [Compound 57, (R or S)-2-fluoro-N-[7-(1-hydroxyethyl)-2-phenylimidazo[1,2-a]pyridin-3-yl]-5-pyrimidin-2-yl-4-(trifluoromethyl) benzamide]", "IC50": 1.1},
      {"smiles": "CC(O)c1ccn2c(NC(=O)c3cc(-c4ncccn4)c(C(F)(F)F)cc3F)c(-c3ccccc3)nc2c1", "note": "(single isomer, unassigned) [Compound 58, (R or S)-2-fluoro-N-[7-(1-hydroxyethyl)-2-phenylimidazo[1,2-a]pyridin-3-yl]-5-pyrimidin-2-yl-4-(trifluoromethyl) benzamide]", "IC50": 0.92},
      {"smiles": "Cc1coc(-c2cc(C(=O)Nc3c(-c4ccccc4)nc4cc(C(C)O)ccn34)ccc2C(F)(F)F)n1", "note": "(single isomer, unassigned) [Compound 61, (R or S)-N-[7-(1-hydroxyethyl)-2-phenylimidazo[1,2-a]pyridin-3-yl]-3-(4-methyl-1,3-oxazol-2-yl)-4-(trifluoromethyl) benzamide]", "IC50": 2.4},
      {"smiles": "Cc1coc(-c2cc(C(=O)Nc3c(-c4ccccc4)nc4cc(C(C)O)ccn34)ccc2C(F)(F)F)n1", "note": "(single isomer, unassigned) [Compound 62, (R or S)-N-[7-(1-hydroxyethyl)-2-phenylimidazo[1,2-a]pyridin-3-yl]-3-(4-methyl-1,3-oxazol-2-yl)-4-(trifluoromethyl) benzamide]", "IC50": 1.5},
      {"smiles": "Cn1ccc(-c2cc(C(=O)Nc3c(-c4ccccc4)nc4cc(C(O)C(F)(F)F)ccn34)ccc2C(F)(F)F)n1", "note": "(single isomer, unassigned) [Compound 63, (R or S)-3-(1-methyl-1H-pyrazol-3-yl)-N-[2-phenyl-7-(2,2,2-trifluoro-1-hydroxyethyl)imidazo[1,2-a]pyridin-3-yl]-4-(trifluoromethyl) benzamide]", "IC50": 1.6},
      {"smiles": "Cn1ccc(-c2cc(C(=O)Nc3c(-c4ccccc4)nc4cc(C(O)C(F)(F)F)ccn34)ccc2C(F)(F)F)n1", "note": "(single isomer, unassigned) [Compound 64, (R or S)-3-(1-methyl-1H-pyrazol-3-yl)-N-[2-phenyl-7-(2,2,2-trifluoro-1-hydroxyethyl)imidazo[1,2-a]pyridin-3-yl]-4-(trifluoromethyl) benzamide]", "IC50": 1.1},
      {"smiles": "Cn1ccc(-c2cc(C(=O)Nc3c(-c4ccccc4)nc4ccc(C(O)C(F)(F)F)cn34)ccc2C(F)(F)F)n1", "note": "(single isomer, unassigned) [Compound 65, (R or S)-3-(1-methyl-1H-pyrazol-3-yl)-N-[2-phenyl-6-(2,2,2-trifluoro-1-hydroxyethyl)imidazo[1,2-a]pyridin-3-yl]-4-(trifluoromethyl) benzamide]", "IC50": 12},
      {"smiles": "Cn1ccc(-c2cc(C(=O)Nc3c(-c4ccccc4)nc4ccc(C(O)C(F)(F)F)cn34)ccc2C(F)(F)F)n1", "note": "(single isomer, unassigned) [Compound 66, (R or S)-3-(1-methyl-1H-pyrazol-3-yl)-N-[2-phenyl-6-(2,2,2-trifluoro-1-hydroxyethyl)imidazo[1,2-a]pyridin-3-yl]-4-(trifluoromethyl) benzamide]", "IC50": 4.5},
      {"smiles": "CC(O)c1ccn2c(NC(=O)c3ccc(C(F)(F)F)c(-c4ncccn4)c3)c(-c3ccccc3)nc2c1", "note": "(single isomer, unassigned) [Compound 67, (R or S)-N-[7-(1-hydroxyethyl)-2-phenylimidazo[1,2-a]pyridin-3-yl]-3-pyrimidin-2-yl-4-(trifluoromethyl) benzamide]", "IC50": 5.1},
      {"smiles": "CC(O)c1ccn2c(NC(=O)c3cc(-c4cc[nH]n4)c(C(F)(F)F)cc3F)c(-c3ccccc3)nc2c1", "note": "(single isomer, unassigned) [Compound 73, (R or S)-2-fluoro-N-[7-(1-hydroxyethyl)-2-phenylimidazo[1,2-a]pyridin-3-yl]-5-(1H-pyrazol-3-yl)-4-(trifluoromethyl) benzamide]", "IC50": 1.4},
      {"smiles": "CC(O)c1ccn2c(NC(=O)c3cc(-c4cc[nH]n4)c(C(F)(F)F)cc3F)c(-c3ccccc3)nc2c1", "note": "(single isomer, unassigned) [Compound 74, (R or S)-2-fluoro-N-[7-(1-hydroxyethyl)-2-phenylimidazo[1,2-a]pyridin-3-yl]-5-(1H-pyrazol-3-yl)-4-(trifluoromethyl) benzamide]", "IC50": 1.8},
      {"smiles": "CC(O)c1ccn2c(NC(=O)c3ccc(C(F)(F)F)c(-c4ccn(C(F)F)n4)c3)c(-c3ccccc3)nc2c1", "note": "(single isomer, unassigned) [Compound 77, (R or S)-3-[1-(difluoromethyl)-1H-pyrazol-3-yl]-N-[7-(1-hydroxyethyl)-2-phenylimidazo[1,2-a]pyridin-3-yl]-4-(trifluoromethyl) benzamide]", "IC50": 4},
      {"smiles": "CC(O)c1ccn2c(NC(=O)c3ccc(C(F)(F)F)c(-c4ccn(C(F)F)n4)c3)c(-c3ccccc3)nc2c1", "note": "(single isomer, unassigned) [Compound 78, (R or S)-3-[1-(difluoromethyl)-1H-pyrazol-3-yl]-N-[7-(1-hydroxyethyl)-2-phenylimidazo[1,2-a]pyridin-3-yl]-4-(trifluoromethyl) benzamide]", "IC50": 4.8},
      {"smiles": "CC(O)c1ccc2[nH]c(-c3ccccc3)c(NC(=O)c3cc(-c4ncccn4)c(C(F)(F)F)cc3F)c2c1", "note": "(single isomer, unassigned) [Compound 94, (R or S)-2-fluoro-N-[5-(1-hydroxyethyl)-2-phenyl-1H-indol-3-yl]-5-pyrimidin-2-yl-4-(trifluoromethyl) benzamide]", "IC50": 6.5},
      {"smiles": "CC(O)c1ccc2[nH]c(-c3ccccc3)c(NC(=O)c3cc(-c4ncccn4)c(C(F)(F)F)cc3F)c2c1", "note": "(single isomer, unassigned) [Compound 95, (R or S)-2-fluoro-N-[5-(1-hydroxyethyl)-2-phenyl-1H-indol-3-yl]-5-pyrimidin-2-yl-4-(trifluoromethyl) benzamide]", "IC50": 4.9},
      {"smiles": "CC(O)c1ccn2nc(-c3ccccc3)c(NC(=O)c3ccc(C(F)(F)F)c(-c4ccn(C)n4)c3)c2c1", "note": "(single isomer, unassigned) [Compound 97, (R or S)-N-[5-(1-hydroxyethyl)-2-phenylpyrazolo[1,5-a]pyridin-3-yl]-3-(1-methyl-1H-pyrazol-3-yl)-4-(trifluoromethyl) benzamide]", "IC50": 1.9},
      {"smiles": "CC(O)c1ccn2nc(-c3ccccc3)c(NC(=O)c3ccc(C(F)(F)F)c(-c4ccn(C)n4)c3)c2c1", "note": "(single isomer, unassigned) [Compound 98, (R or S)-N-[5-(1-hydroxyethyl)-2-phenylpyrazolo[1,5-a]pyridin-3-yl]-3-(1-methyl-1H-pyrazol-3-yl)-4-(trifluoromethyl) benzamide]", "IC50": 3.3},
      {"smiles": "CC(O)c1ccn2nc(-c3ccccc3)c(NC(=O)c3cc(-c4ccn(C)n4)c(C(F)(F)F)cc3F)c2c1", "note": "(single isomer, unassigned) [Compound 106, (R or S)-2-fluoro-N-[5-(1-hydroxyethyl)-2-phenylpyrazolo[1,5-a]pyridin-3-yl]-5-(1-methyl-1H-pyrazol-3-yl)-4-(trifluoromethyl) benzamide]", "IC50": 1.7}
    ]}
  ]
}
